The text below walks through data of patent publication US9238625B2, “Compositions, synthesis, and methods of using phenylcycloalkylmethylamine derivatives” (Reviva Pharmaceuticals, Inc., priority 2011, dated 2016).

In data set [1] the target is human recombinant transporter protein dopamine (DAT) (Homo sapiens (Human), UniProt Q01959). Description: radioligand binding assay, dopamine transporter. Particulars: 11 test concentrations 0.1 nM to 1 μM, duplicates, hydrochloride salts. Here is the method: (§1) The monoamine transporters inhibitory activities of selected cycloalkylmethylamines of Formula (I) are reported herein. The compounds were evaluated using well established radioligand binding assays protocols (Galli, A. et al., J. Exp. Biol. 1995, 198, 2197-2212; Giros, B. et al., Trends Pharmcol. Sci. 1993, 14, 43-49; Gu, H. et al., J. Biol. Chem. 1994, 269(10), 7124-7130; Shearman, L. P. et al, Am. J. Physiol., 1998, 275(6 Pt 1), C1621-1629; Wolf, W. A. et al., J. Biol. Chem. 1992, 267(29), 20820-20825). The human recombinant transporter proteins dopamine (DAT), norepinephrine (NET) and serotonin (SERT) were selected for the in vitro assays. The radioligand binding assays were carried out at 11 different test concentrations 0.1 nM to 1 μM.
Chain of human recombinant transporter protein dopamine (DAT) (Q01959 whole entry): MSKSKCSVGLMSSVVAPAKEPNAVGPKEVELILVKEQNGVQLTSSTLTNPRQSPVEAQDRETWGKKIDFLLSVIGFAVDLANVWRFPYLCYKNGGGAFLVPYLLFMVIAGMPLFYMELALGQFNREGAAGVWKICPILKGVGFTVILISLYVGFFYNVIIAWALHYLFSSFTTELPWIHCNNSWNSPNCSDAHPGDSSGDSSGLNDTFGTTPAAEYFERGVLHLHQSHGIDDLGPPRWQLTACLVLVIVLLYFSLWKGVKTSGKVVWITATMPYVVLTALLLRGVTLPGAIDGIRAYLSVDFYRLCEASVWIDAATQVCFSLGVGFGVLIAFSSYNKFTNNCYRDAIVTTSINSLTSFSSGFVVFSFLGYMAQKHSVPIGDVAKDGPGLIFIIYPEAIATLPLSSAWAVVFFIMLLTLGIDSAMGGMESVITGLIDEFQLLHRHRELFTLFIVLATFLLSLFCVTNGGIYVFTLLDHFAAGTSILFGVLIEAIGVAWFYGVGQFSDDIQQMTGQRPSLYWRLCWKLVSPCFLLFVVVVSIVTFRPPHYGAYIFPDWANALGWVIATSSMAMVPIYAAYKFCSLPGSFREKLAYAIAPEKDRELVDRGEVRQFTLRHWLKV
(§2) The assays were carried out in duplicates and the quantitative data are reported as Ki in the Table 1.

Data set [2] concerns the target human recombinant transporter protein norepinephrine (NET) (Homo sapiens (Human), UniProt P23975). The data set is described as follows: radioligand binding assay, norepinephrine transporter. Particulars: 11 test concentrations 0.1 nM to 1 μM, duplicates, hydrochloride salts. Here is the method: as §1, §2
The target in data set [3] is human recombinant transporter protein serotonin (SERT) (Homo sapiens (Human), UniProt P31645). The data set is described as follows: radioligand binding assay, serotonin transporter. Particulars: 11 test concentrations 0.1 nM to 1 μM, duplicates, hydrochloride salts. Here is the method:
as §1, §2

The conditions of data set [4]: active metabolites of sibutramine; cited from earlier work.

Chain of human recombinant transporter protein norepinephrine (NET) (P23975 whole entry): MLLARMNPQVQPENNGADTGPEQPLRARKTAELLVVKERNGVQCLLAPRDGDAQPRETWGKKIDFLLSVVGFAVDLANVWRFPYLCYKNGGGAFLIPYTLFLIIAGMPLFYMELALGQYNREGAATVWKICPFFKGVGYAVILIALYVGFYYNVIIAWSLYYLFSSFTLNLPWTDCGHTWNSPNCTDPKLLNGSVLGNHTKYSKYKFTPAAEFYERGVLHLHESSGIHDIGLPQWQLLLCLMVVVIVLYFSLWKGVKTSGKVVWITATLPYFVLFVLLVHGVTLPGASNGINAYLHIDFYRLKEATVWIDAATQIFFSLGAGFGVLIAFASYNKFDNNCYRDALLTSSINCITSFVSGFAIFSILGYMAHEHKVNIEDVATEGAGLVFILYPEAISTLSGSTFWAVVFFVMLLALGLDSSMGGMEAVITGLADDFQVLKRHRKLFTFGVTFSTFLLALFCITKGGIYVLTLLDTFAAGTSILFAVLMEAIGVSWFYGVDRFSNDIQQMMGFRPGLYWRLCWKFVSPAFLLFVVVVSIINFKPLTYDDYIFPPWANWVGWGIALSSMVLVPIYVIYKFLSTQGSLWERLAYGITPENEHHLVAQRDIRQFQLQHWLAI

A word on the Ki: it is a dissociation constant, usually derived from enzyme kinetics or from competition with a known ligand. Take `CCS(=O)(=O)CCCCNC(CC(C)C)C1(c2ccc(Cl)c(Cl)c2)CCC1` (centres unmarked) [Compound 17a, 1-(1-(3,4-Dichlorophenyl)cyclobutyl)-N-(4-(ethylsulfonyl)butyl)-3-methylbutan-1-amine]: the values for the inhibitory constant (Ki) in data set [1], in data set [2] and in data set [3] were 29.4 nM, 44.7 nM and 38.4 nM, respectively.
Consider `CCOCCCCNC(CC(C)C)C1(c2ccc(SC)cc2)CCC1` (centres unmarked) [Compound 7g, N-(4-Ethoxybutyl)-3-methyl-1-(1-(4-(methylthio)phenyl)cyclobutyl)butan-1-amine], for which the Ki is 92 nM in data set [1], 37.2 nM in data set [2] and 2.99 nM in data set [3].
For the compound `COCCCCN[C@H](CC(C)C)C1(c2ccc(Cl)c(Cl)c2)CCC1` [Compound 8h, (R)-1-(1-(3,4-Dichlorophenyl)cyclobutyl)-N-(4-methoxybutyl)-3-methylbutan-1-amine], the Ki in data set [1] came out at 2.39 nM; in data set [2] it was 12.7 nM; in data set [3], 1.19 nM.
For `CCOCCNC(CC(C)C)C1(c2ccc(Cl)c(Cl)c2)CCC1` (centres unmarked) [Compound 8a, 1-(1-(3,4-Dichlorophenyl)cyclobutyl)-N-(2-ethoxyethyl)-3-methylbutan-1-amine] the same measures were 2.38 nM, 46.7 nM and 1.4 nM.
Take `CNC(CC(C)C)C1(c2ccc(Cl)cc2)CCC1` (centres unmarked) [Compound M1]: the elimination half-life in data set [4] is 14 h.
`CCSCCNC(CC)C1(c2ccc(Cl)c(Cl)c2)CCC1` (centres unmarked) [Compound 13f, 1-(1-(3,4-dichlorophenyl)cyclobutyl)-N-(2-(ethylthio)ethyl)propan-1-amine]: the inhibitory constant (Ki) in data set [1] worked out at 49.2 nM; in data set [2], 119 nM; in data set [3], 224 nM.
The corresponding values for `CCOc1ccc(C2(C(CC(C)C)NCCSCC)CCC2)cc1` (centres unmarked) [Compound 12c, 1-(1-(4-Ethoxyphenyl)cyclobutyl)-N-(2-(ethylthio)ethyl)-3-methylbutan-1-amine] are 116 nM, 1420 nM and 3.31 nM.
As for `CCCCSCCCCNC(CC(C)C)C1(c2ccc(Cl)c(Cl)c2)CCC1` (centres unmarked) [Compound 13d, N-(4-(Butylthio)butyl)-1-(1-(3,4-dichlorophenyl)cyclobutyl)-3-methylbutan-1-amine], the figures for the inhibitory constant (Ki) in data set [1], in data set [2] and in data set [3] were 104 nM, 51 nM and 65.3 nM, respectively.
As for `CCCOCCCN[C@H](CC(C)C)C1(c2ccc(Cl)c(Cl)c2)CCC1` [Compound 8d, (R)-1-(1-(3,4-Dichlorophenyl)cyclobutyl)-N-(3-propoxypropyl)-3-methylbutan-1-amine], the Ki was determined as 5.45 nM in data set [1], 72 nM in data set [2] and 3.8 nM in data set [3].
Consider `CCSCCCCNC(CC(C)C)C1(c2ccc(Cl)cc2)CCC1` (centres unmarked) [Compound 12b, 1-(1-(4-Chlorophenyl)cyclobutyl)-N-(4-(ethylthio)butyl)-3-methylbutan-1-amine], for which the inhibition constant Ki in data set [1] came out at 67.6 nM; in data set [2] it was 51.9 nM; in data set [3] it was 18.8 nM.
The corresponding values for `CCOCCCCN[C@H](CC(C)C)C1(c2ccc(Cl)c(Cl)c2)CCC1` [Compound 8j, (R)-1-(1-(3,4-Dichlorophenyl)cyclobutyl)-N-(4-ethoxybutyl)-3-methylbutan-1-amine] are 1.16 nM, 11 nM and 0.8 nM.
Regarding `CC(C)CC(N)C1(c2ccc(Cl)cc2)CCC1` (centres unmarked) [Compound M2], the elimination half-life in data set [4] was 16 h.
As to `CCSCCCCNC(CC(C)C)C1(c2ccc(Cl)c(Cl)c2)CCC1` (centres unmarked) [Compound 13c, 1-(1-(3,4-Dichlorophenyl)cyclobutyl)-N-(4-(ethylthio)butyl)-3-methylbutan-1-amine], the Ki was 23.9 nM in data set [1], 17.1 nM in data set [2] and 14.8 nM in data set [3].
